This data set is described as follows: Ames test (ISO/FDIS 7405), mutagenicity test. The data set is classed as cell-based. An excerpt:
The improved toxicity is manifested, for example, in a lower mutagenicity.
In general terms: In the Ames test, an excess of revertant colonies over the control signals mutagenicity.

Where two headings read alike, the source gives them in different places.

For the compound `C[Si](CCC1CCC2OC2C1)(CCC1CCC2OC2C1)c1ccccc1` (stereo not drawn) [methylbis[2-(7-oxabicyclo[4.1.0]hept-3-yl)ethyl]phenyl-silane], the “Ames test (ISO/FDIS 7405)” value is listed as “negative”. Same read-out and setting: then `C[Si](C)(CC1CCC2OC2C1)CC1CCC2OC2C1` (stereo not drawn) [dimethylbis[2-(7-oxabicyclo[4.1.0]hept-3-yl)methyl]-silane], with “negative”.

For the compound `O=C(OCC1CCC2OC2C1)C1CCC2OC2C1` (stereo not drawn) [3,4-epoxycyclohexylmethyl 3,4-epoxycyclohexanecarboxylate, reference compound], under “mutagenicity”, the “Ames test (ISO/FDIS 7405)” value was “positive”.

Values taken from patent US6779656B2, “Polymerizable preparations based on epoxides that contain silicon” (3M Espe AG, priority 2000, dated 2004).
